Laboratory results from patent publication US11524966B1 (Valo Early Discovery, Inc., priority 2017, dated 2022).

Molecular target: T1, USP28 (USP28-5(1-1077)-TEV-6*His; LifeSensors) (Homo sapiens, UniProt Q96RU2)
T1 construct: construct USP28 (USP28-5(1-1077)-TEV-6*His; LifeSensors); TEV cleavage site (C); 6xHis (C); purchased LifeSensors
T1 sequence (Q96RU2 1-1077): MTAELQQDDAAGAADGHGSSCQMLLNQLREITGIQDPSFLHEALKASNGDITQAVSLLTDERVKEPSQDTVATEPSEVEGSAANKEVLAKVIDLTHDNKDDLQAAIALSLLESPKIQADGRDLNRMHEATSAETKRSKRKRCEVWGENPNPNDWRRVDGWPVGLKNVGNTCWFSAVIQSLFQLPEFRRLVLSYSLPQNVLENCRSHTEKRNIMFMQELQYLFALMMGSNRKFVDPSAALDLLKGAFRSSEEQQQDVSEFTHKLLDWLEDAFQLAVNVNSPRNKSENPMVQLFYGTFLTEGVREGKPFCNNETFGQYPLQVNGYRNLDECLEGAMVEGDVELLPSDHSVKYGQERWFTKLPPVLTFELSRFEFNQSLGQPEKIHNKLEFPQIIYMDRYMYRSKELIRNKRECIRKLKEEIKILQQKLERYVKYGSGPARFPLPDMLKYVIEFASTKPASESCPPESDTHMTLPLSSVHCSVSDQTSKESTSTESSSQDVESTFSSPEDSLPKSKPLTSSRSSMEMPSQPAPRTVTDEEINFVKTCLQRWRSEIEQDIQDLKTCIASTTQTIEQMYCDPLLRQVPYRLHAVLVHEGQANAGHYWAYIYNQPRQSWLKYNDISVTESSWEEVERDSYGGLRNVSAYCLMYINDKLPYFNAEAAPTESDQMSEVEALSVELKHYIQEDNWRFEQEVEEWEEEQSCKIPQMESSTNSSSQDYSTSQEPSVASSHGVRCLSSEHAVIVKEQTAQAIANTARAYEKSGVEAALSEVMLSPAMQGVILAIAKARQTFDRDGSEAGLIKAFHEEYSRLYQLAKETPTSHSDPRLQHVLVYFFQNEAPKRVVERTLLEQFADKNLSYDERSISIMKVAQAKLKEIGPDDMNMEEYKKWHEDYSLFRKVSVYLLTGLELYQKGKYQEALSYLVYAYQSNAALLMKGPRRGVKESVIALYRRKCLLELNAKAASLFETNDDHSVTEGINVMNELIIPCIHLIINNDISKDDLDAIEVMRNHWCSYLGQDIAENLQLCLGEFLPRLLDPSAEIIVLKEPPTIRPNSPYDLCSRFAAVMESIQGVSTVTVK
Assay: Ubiquitin-Rhodamine 110 Assay for USP28 Activity, Example A-1(b)
Assay type: biochemical
Details: Ubiquitin-Rhodamine 110 assay, Example A-1(b)
Summary of the method: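 Single-point screening used 10 μM compound with 90 min room-temperature incubation; follow-up dose-responses (25 μM top, 3-fold) used 75 pM USP28 1-1077 construct, 30 min compound preincubation, 25 nM Ub-Rh110, 20 min reaction, citric acid quench. Rh110 fluorescence normalised to no-enzyme and DMSO controls; IC50 from 4-parameter logistic fit.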

| Compound | USP28 A-1(b) IC50 range |
| --- | --- |
| Cc1ccc2c(N)c(C(=O)N[C@H]3COc4cc(C5(F)CCNCC5)ccc4C3)sc2n1 [Example 8-1, (R)-3-Amino-N-(7-(4-fluoropiperidin-4-yl)chroman-3-yl)-6-methylthieno[2,3-b]pyridine-2-carboxamide] | ++++ (0.001-0.05 μM) |
| Cc1ccc2c(N)c(C(=O)N[C@H]3COc4cc(N5CCNCC5)cc(F)c4C3)sc2n1 [Example 10-1, (R)-3-amino-N-(5-fluoro-7-(piperazin-1-yl)chroman-3-yl)-6-methylthieno[2,3-b]pyridine-2-carboxamide] | +++ (0.05-0.2 μM) |
| Cc1ccc2c(N)c(C(=O)N[C@@H]3COc4cc(N5CCNCC5)cc(F)c4C3)sc2n1 [Example 10-5, (S)-3-amino-N-(5-fluoro-7-(piperazin-1-yl)chroman-3-yl)-6-methylthieno[2,3-b]pyridine-2-carboxamide] | + (>2 μM) |
| Cc1ccc2c(N)c(C(=O)N[C@H]3COc4cc(N5CC6CNCC(C5)O6)cc(F)c4C3)sc2n1 [Example 10-6, N-((3R)-7-(9-oxa-3,7-diazabicyclo[3.3.1]nonan-3-yl)-5-fluorochroman-3-yl)-3-amino-6-methylthieno[2,3-b]pyridine-2-carboxamide] | ++++ (0.001-0.05 μM) |
| Cc1cc(C)c2c(N)c(C(=O)N[C@H]3COc4cc(N5CC6CC(C5)N6)cc(F)c4C3)sc2n1 [Example 10-7, N-((3R)-7-(3,6-diazabicyclo[3.1.1]heptan-3-yl)-5-fluorochroman-3-yl)-3-amino-4,6-dimethylthieno[2,3-b]pyridine-2-carboxamide] | +++ (0.05-0.2 μM) |
| Cc1cnc2c(N)c(C(=O)N[C@H]3COc4cc(N5CC6CC(C5)N6)cc(F)c4C3)sc2n1 [Example 10-8, N-((3R)-7-(3,6-diazabicyclo[3.1.1]heptan-3-yl)-5-fluorochroman-3-yl)-7-amino-3-methylthieno[2,3-b]pyrazine-6-carboxamide] | +++ (0.05-0.2 μM) |
| Cc1cc(C)c2c(N)c(C(=O)N[C@H]3COc4cc(N5CCNCC5)cc(F)c4C3)sc2n1 [Example 10-9, (R)-3-amino-N-(5-fluoro-7-(piperazin-1-yl)chroman-3-yl)-4,6-dimethylthieno[2,3-b]pyridine-2-carboxamide] | +++ (0.05-0.2 μM) |
| Cc1cnc2c(N)c(C(=O)N[C@H]3COc4cc(N5CCNCC5)cc(F)c4C3)sc2n1 [Example 10-10, (R)-7-amino-N-(5-fluoro-7-(piperazin-1-yl)chroman-3-yl)-3-methylthieno[2,3-b]pyrazine-6-carboxamide] | +++ (0.05-0.2 μM) |
| COc1ccc2c(N)c(C(=O)N[C@H]3COc4cc(N5CCNCC5)cc(F)c4C3)sc2n1 [Example 10-11, (R)-3-amino-N-(5-fluoro-7-(piperazin-1-yl)chroman-3-yl)-6-methoxythieno[2,3-b]pyridine-2-carboxamide] | ++ (0.2-2 μM) |
| Cc1cnc2c(N)c(C(=O)N[C@H]3COc4cc(N5CC6CNCC(C5)O6)cc(F)c4C3)sc2n1 [Example 10-12, N-((3R)-7-(9-oxa-3,7-diazabicyclo[3.3.1]nonan-3-yl)-5-fluorochroman-3-yl)-7-amino-3-methylthieno[2,3-b]pyrazine-6-carboxamide] | ++++ (0.001-0.05 μM) |
| Cc1cc(C)c2c(N)c(C(=O)N[C@H]3COc4cc(N5CC6CNCC(C5)O6)cc(F)c4C3)sc2n1 [Example 10-13, N-((3R)-7-(9-oxa-3,7-diazabicyclo[3.3.1]nonan-3-yl)-5-fluorochroman-3-yl)-3-amino-4,6-dimethylthieno[2,3-b]pyridine-2-carboxamide] | ++++ (0.001-0.05 μM) |
| Cc1cc(C(F)(F)F)c2c(N)c(C(=O)N[C@H]3COc4cc(N5CCNCC5)cc(F)c4C3)sc2n1 [Example 10-14, (R)-3-amino-N-(5-fluoro-7-(piperazin-1-yl)chroman-3-yl)-6-methyl-4-(trifluoromethyl)thieno[2,3-b]pyridine-2-carboxamide] | ++ (0.2-2 μM) |
| Cc1ccc2c(N)c(C(=O)N[C@H]3CCc4cc(N5CC6CCC(C5)N6)ccc4C3)sc2n1 [Example 11-1, N-((2S)-6-(3,8-diazabicyclo[3.2.1]octan-3-yl)-1,2,3,4-tetrahydronaphthalen-2-yl)-3-amino-6-methylthieno[2,3-b]pyridine-2-carboxamide] | +++ (0.05-0.2 μM) |
| Cc1ccc2c(N)c(C(=O)N[C@@H]3CCc4cc(N5CC6CCC(C5)N6)ccc4C3)sc2n1 [Example 11-2, N-((2R)-6-(3,8-diazabicyclo[3.2.1]octan-3-yl)-1,2,3,4-tetrahydronaphthalen-2-yl)-3-amino-6-methylthieno[2,3-b]pyridine-2-carboxamide] | ++ (0.2-2 μM) |

Same assay, conditions: Ubiquitin-Rhodamine 110 assay, format Example A-1(b)

| Compound | USP28 A-1(b) IC50 range |
| --- | --- |
| Cc1ccc2c(N)c(C(=O)N[C@H]3CCc4c(F)c(N5CCNCC5)cc(F)c4C3)sc2n1 (single isomer, unassigned) [Example 22-1] | ++ (0.2-2 μM) |
| Cc1ccc2c(N)c(C(=O)N[C@@H]3CCc4c(F)c(N5CCNCC5)cc(F)c4C3)sc2n1 (single isomer, unassigned) [Example 22-2] | +++ (0.05-0.2 μM) |
| Cc1ccc2c(N)c(C(=O)N[C@H]3COc4cc(N5CC6CCC(C5)N6)c(F)c(F)c4C3)sc2n1 [Example 13-3, N-((3R)-7-(3,8-diazabicyclo[3.2.1]octan-3-yl)-5,6-difluorochroman-3-yl)-3-amino-6-methylthieno[2,3-b]pyridine-2-carboxamide] | + (>2 μM) |
| Cc1ccc2c(N)c(C(=O)N[C@@H]3COc4cc(N5CC6CCC(C5)N6)c(F)c(F)c4C3)sc2n1 [Example 13-4, N-((3S)-7-(3,8-diazabicyclo[3.2.1]octan-3-yl)-5,6-difluorochroman-3-yl)-3-amino-6-methylthieno[2,3-b]pyridine-2-carboxamide] | ++++ (0.001-0.05 μM) |
| Cc1ccc2c(N)c(C(=O)N[C@H]3COc4cc(N5CCNCC5)c(Cl)cc4C3)sc2n1 [Example 13-5, (R)-3-amino-N-(6-chloro-7-(piperazin-1-yl)chroman-3-yl)-6-methylthieno[2,3-b]pyridine-2-carboxamide] | + (>2 μM) |
| Cc1ccc2c(N)c(C(=O)N[C@@H]3COc4c(ccc(N5CCNCC5)c4Cl)C3)sc2n1 [Example 13-8, (S)-3-amino-N-(8-chloro-7-(piperazin-1-yl)chroman-3-yl)-6-methylthieno[2,3-b]pyridine-2-carboxamide] | + (>2 μM) |
| Cc1ccc2c(N)c(C(=O)N[C@H]3COc4c(ccc(N5CCNCC5)c4Cl)C3)sc2n1 [Example 13_7, (R)-3-amino-N-(8-chloro-7-(piperazin-1-yl)chroman-3-yl)-6-methylthieno[2,3-b]pyridine-2-carboxamide] | +++ (0.05-0.2 μM) |
| Cc1ccc2c(N)c(C(=O)N[C@H]3COc4cc(N5CCNCC5)ncc4C3)sc2n1 [Example 16, (R)-3-Amino-6-methyl-N-(7-(piperazin-1-yl)-3,4-dihydro-2H-pyrano[3,2-c]pyridin-3-yl)thieno[2,3-b]pyridine-2-carboxamide] | ++ (0.2-2 μM) |
